Results as given in ChEMBL document CHEMBL5365408, “Small molecule inhibitors of PCSK9. SAR investigations of head and amine groups” (Bioorg Med Chem Lett, 2023).

Key:
[1] = Cytotoxicity against rat Bone marrow cell assessed as inhibition of cell growth with puromycin as high potent effect standard by celltiter-glo assay; format: toxicity, cell-based; settings: rat bone marrow cells
[2] = (§1) Cytotoxicity against rat Bone marrow cell assessed as inhibition of cell growth with (R)-4-(3H-[1,2,3]triazolo[4,5-b]pyridin-3-yl)-N-(3-chloropyridin-2-yl)-N-(piperidin-3-yl) benzamide as high potent effect standard by celltiter-glo assay; format: toxicity, cell-based; settings: rat, rat bone marrow cells
[3] = Selectivity index, ratio of IC50 for cytotoxicity against rat Bone marrow cell assessed as inhibition of cell growth by celltiter-glo assay to IC50 for inhibition of full length human PCSK9 expressed in human Huh-7 cells by ELISA analysis
[4] = target: T1, Proprotein convertase subtilisin/kexin type 9 (Homo sapiens, UniProt Q8NBP7); assay: Inhibition of full length human PCSK9 expressed in human Huh-7 cells by ELISA analysis; format: cell-based
[5] = test system: Bone marrow cell; assay: as §1; format: toxicity, cell-based; settings: bone marrow cell
[6] = target: T1, Proprotein convertase subtilisin/kexin type 9; assay: Inhibition of full length human PCSK9 expressed in human Huh-7 cells at 20 uM by ELISA analysis relative to control; format: cell-based

T1 sequence (Q8NBP7 31-152 limits assumed): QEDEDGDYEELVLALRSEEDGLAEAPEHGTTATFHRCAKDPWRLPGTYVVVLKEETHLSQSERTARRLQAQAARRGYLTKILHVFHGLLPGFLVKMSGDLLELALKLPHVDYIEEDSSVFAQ
T1 sequence (Q8NBP7 153-692 limits assumed): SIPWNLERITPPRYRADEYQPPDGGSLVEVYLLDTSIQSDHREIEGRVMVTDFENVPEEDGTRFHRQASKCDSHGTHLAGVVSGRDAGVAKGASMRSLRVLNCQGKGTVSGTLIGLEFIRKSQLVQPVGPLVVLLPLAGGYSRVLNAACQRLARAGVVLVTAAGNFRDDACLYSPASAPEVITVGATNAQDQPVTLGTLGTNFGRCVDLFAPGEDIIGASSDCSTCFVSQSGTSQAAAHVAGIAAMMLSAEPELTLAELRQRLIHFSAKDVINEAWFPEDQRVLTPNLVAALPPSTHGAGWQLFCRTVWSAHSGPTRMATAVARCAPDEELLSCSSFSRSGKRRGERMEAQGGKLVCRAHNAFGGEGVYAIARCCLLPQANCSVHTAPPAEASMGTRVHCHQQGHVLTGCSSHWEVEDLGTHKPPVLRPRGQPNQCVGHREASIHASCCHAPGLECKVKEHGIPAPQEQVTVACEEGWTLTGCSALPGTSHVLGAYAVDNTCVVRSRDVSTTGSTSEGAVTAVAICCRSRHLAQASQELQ

Compound	IC50 [4]	IC50 [2]	also measured
Cc1cnc2c(c1)nnn2-c1ccc(C(=O)N(c2ncccc2Cl)[C@@H]2CCCNC2)nc1		27.1 µM	IC50 [1]: 19.9 µM
C[C@@H]1CNC[C@H](N(C(=O)c2ccc(-n3nnc4cccnc43)cc2)c2ncccc2Cl)C1 (racemic)		35.6 µM	
O=C(c1ccc(-n2nnc3cccnc32)cc1)N(c1nccc2c1CCCC2)[C@@H]1CCCNC1	2.28 µM		IC50 [1]: 0.41 µM; Ratio IC50 [3]: 0.18
O=C(c1ccc(-n2nnc3cccnc32)cc1)N(c1nccc2ccsc12)[C@@H]1CCCNC1	0.73 µM		IC50 [1]: 0.28 µM; Ratio IC50 [3]: 0.38
O=C(c1ccc(-n2nnc3cccnc32)cc1)N(c1ncccc1Cl)[C@H]1CNC[C@H](Oc2ccccc2)C1 (racemic)	> 20 µM		
N#Cc1cccnc1N(C(=O)c1ccc(-c2cnn3cccnc23)cc1)[C@@H]1CCCNC1	> 20 µM		
C[C@H]1CNC[C@H](N(C(=O)c2ccc(-n3nnc4cccnc43)cc2)c2ncccc2Cl)C1 (racemic)		37.2 µM	
O=C(c1ccc(-n2nnc3cccnc32)cc1)N(c1ncccc1OC(F)(F)F)[C@@H]1CCCNC1	5.4 µM	6.44 µM	
O=C(c1ccc(-n2nnc3cccnc32)cc1)N(c1ncccc1C(F)(F)F)[C@@H]1CCCNC1	1.66 µM	13.8 µM	Ratio IC50 [3]: 8.28
O=C(c1ccc(-n2nnc3cccnc32)cc1)N(c1ncccc1Cl)[C@H]1CNC[C@@H](CO)C1 (racemic)		> 100 µM	inhibition [6]: 11%
O=C(c1ccc(-c2cnn3cccnc23)cc1)N(c1ncccc1C1CC1)[C@@H]1CCCNC1	7.74 µM		

Continued, in another order:

IC50 [4]	Compound	IC50 [2]	also measured
> 20 µM	O=C(c1ccc(-n2nnc3cccnc32)cc1)N(c1ncccc1Cl)[C@H]1CNC[C@H](c2ccccc2)C1 (racemic)	12.5 µM	
17.1 µM	C[C@@H]1CNC[C@H](N(C(=O)c2ccc(-n3nnc4cccnc43)cc2)c2ncccc2Cl)C1		IC50 [5]: 23.3 µM
> 20 µM	CC(=O)NC[C@H]1CNC[C@H](N(C(=O)c2ccc(-n3nnc4cccnc43)cc2)c2ncccc2Cl)C1 (racemic)		
> 20 µM	COC(=O)NC[C@H]1CNC[C@H](N(C(=O)c2ccc(-n3nnc4cccnc43)cc2)c2ncccc2Cl)C1 (racemic)		
14.1 µM	C[C@H]1CNC[C@H](N(C(=O)c2ccc(-n3nnc4cccnc43)cc2)c2ncccc2Cl)C1		IC50 [5]: 22 µM
4.6 µM	O=C(c1ccc(-n2nnc3cccnc32)cc1)N(c1ncccc1Cl)[C@H]1CNC[C@H](CO)C1		IC50 [5]: 7.2 µM
> 20 µM	CO[C@H]1CNC[C@H](N(C(=O)c2ccc(-n3nnc4cccnc43)cc2)c2ncccc2Cl)C1 (racemic)	76.6 µM	
